# Values of other authors in US20110262436A1, “TREATMENT METHOD” (Genentech, Inc., priority 2008, published 2011).
# Test system: advanced, treatment-refractory NSCLC
# Details: phase III trial; cited from earlier work
compound,measurement,value
"C#Cc1cccc(Nc2ncnc3cc(OCCOC)c(OCCOC)cc23)c1 [erlotinib, N-(3-ethynylphenyl)-6,7-bis(2-methoxyethoxy)-4-quinazolinamine]","Survival, erlotinib monotherapy",significantly prolonged survival
